Measured values reported in patent US20240398889A1, “NUTRACEUTICAL COMPOSITION AND METHOD FOR THE PROTECTION OF HUMAN ARTERIAL ENDOTHELIAL CELLS FROM ENDOTHELIAL CELL DYSFUNCTION” (K.L.R.M., LLC, priority 2022, published 2024).

Key:
[1] = system: human umbilical arterial endothelial cells (HUAEC); test: cGMP expression by colorimetric ELISA in HUAEC; type: cell-based; conditions: 24 hours; for cGMP expression, change vs control: agent alone, IBMX 0.4 mM; for cGMP expression, change vs control / reduction of cGMP expression compared to COMP-4 incubation alone: L-NIL 2 μM; for reduction of cGMP expression compared to COMP-4 incubation alone: inhibitor co-incubated with COMP-4 0.69 mg/ml
Method: Cells were then scraped, homogenized by pipetting, and centrifuged at 1,000 g for 10 minutes. […] The enzymatic reaction product was determined by spectrophotometry at 405 nm absorbance and expressed as pmol/mg protein.

[2] = system: human umbilical arterial endothelial cells (HUAEC); test: Intracellular NO by Muse Nitric Oxide Kit (DAX-J2 Orange); type: cell-based; conditions: L-NAME added to COMP-4, 24 hours
Method: To corroborate the results obtained by flow cytometry, another system for detecting intracellular NO was used, the Muse® Nitric Oxide Kit (cat #MCH100112, Luminex, Austin, TX). HUAEC were seeded at 1.0×10^6 cells/ml in T25 flasks, treated with vehicle, COMP-4 with or without L-NAME, or LPS (positive control), and incubated for 24 hours. Cells were then suspended in assay buffer at 10^6 cells/ml. 100 μL of working solution consisting of the Muse Nitric Oxide Reagent (DAX-J2 Orange) was added to 10 μL of cells in suspension. Samples were incubated for 30 minutes in a 37° C. incubator with 5% CO2. After the incubation, 90 μL of the Muse 7-AAD working solution (dead cell marker) was added to each tube and incubated at room temperature for 5 min, protected from light. Intracellular NO was measured using the Guava® Muse Cell Analyzer, calibrated with negative and positive controls. Generated plots were divided into quadrants of nitric oxide positivity (+or −) and dead cells (+or −). From each plot, the lower-right quadrant of nitric oxide (+) and dead cell marker (−) was used to express intracellular NO results as the percent positive NO in live cells, which was compared between different treatments.

Row | SMILES | cGMP expression, change vs control [1] | reduction of cGMP expression compared to COMP-4 incubation alone ([1]; L-NAME 3 μM) | reduction of cGMP expression ([1]; inhibitor alone, L-NAME 3 μM, vs control) | reduction of DAX-J2 Orange live cells compared to COMP-4 alone [2]
1 | CC(=N)NCCCC[C@H](N)C(=O)O.Cl [L-NIL, N^6-(1-Iminoethyl)-lysine, hydrochloride] | no inhibition of cGMP expression | 44% | – | –
2 | CC(C)Cn1c(=O)n(C)c(=O)c2[nH]cnc21 [IBMX, 3-isobutyl-1-methylxanthine] | increase in cGMP expression | – | – | –
3 | COC(=O)[C@@H](N)CCCNC(=N)N[N+](=O)[O-] [L-NAME, L-N^G-Nitro arginine methyl ester] | – | 57% | 40% | 46%
